The results in this text go back to patent publication US20260184663A1, “INDENE COMPOUNDS, PHARMACEUTICAL COMPOSITIONS THEREOF, AND THEIR THERAPEUTIC APPLICATIONS” (NucMito Pharmaceuticals co. Ltd., priority 2022, published 2026).

Common to all, as to assay type: cell-based
One assay has as its system HepG2 (liver cancer). In words: Antiproliferative activity (CCK-8 cell viability), HepG2. As to conditions: Homo sapiens, 72 h, read-out: Antiproliferative activity in cancerous cells, HepG2 (inhibition of cell growth); for inhibition at 3.3 µM: Compound concentration: 3.3 μM; for inhibition at 10 µM: Compound concentration: 10 μM. An outline of the steps: (§1)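 Cells grown in DMEM (HepG2, SW480), MEM (HeLa) or F-12K (A549), each with 10% FBS, then exposed to compound at 3.3, 10 or 30 μM for 72 h at 37 °C. CCK-8 absorbance at 450 nm; viability expressed as percent of DMSO-treated cells, graded as growth inhibition bands.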

Assay [1] has as its system MDA-MB-231 (breast cancer). The experiment in a line: Antiproliferative activity (CCK-8 cell viability), MDA-MB-231. As to conditions: Homo sapiens, 72 h; for inhibition at 3.3 µM: Compound concentration: 3.3 μM; for inhibition at 10 µM: Compound concentration: 10 μM; for inhibition at 30 µM: Compound concentration: 30 μM. The method in brief:
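MDA-MB-231 breast cancer cells, grown in DMEM with 10% FBS, were plated in 96-well plates at 2,000-5,000 cells/well. Once attached, they were exposed to compound and incubated at 37° C. for 72 h. Viability was then measured with CCK-8 (10 μL per well, 4 h at 37° C.) by absorbance at 450 nm, relative to DMSO vehicle wells.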

A further assay deals with HeLa (cervical cancer). The experiment in a line: Antiproliferative activity (CCK-8 cell viability), HeLa. As to conditions: Homo sapiens, 72 h, read-out: Antiproliferative activity in cancerous cells, HELA (inhibition of cell growth); for inhibition at 3.3 µM: Compound concentration: 3.3 μM; for inhibition at 10 µM: Compound concentration: 10 μM. An outline of the steps:
as §1

In assay [2] the test system is A431 (epidermoid carcinoma). In words: Antiproliferative activity (CCK-8 cell viability), A431. As to conditions: Homo sapiens, 72 h, read-out: Antiproliferative activity in cancerous cells, A431 (inhibition of cell growth); for inhibition at 3.3 µM: A-431, Compound concentration: 3.3 μM; for inhibition at 10 µM: A-431, Compound concentration: 10 μM. The method in brief: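 A431 epidermoid carcinoma cells grown in DMEM with 10% FBS were plated at 2,000-5,000 cells/well in 96-well plates. After attachment they were exposed to compound at 3.3 μM, 10 μM, or 30 μM for 72 h at 37° C. Viability was then assessed by CCK-8 against DMSO vehicle-treated wells.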

For assay [3], the system named is A549 (lung adenocarcinoma). The experiment in a line: Antiproliferative activity (CCK-8 cell viability), A549. As to conditions: Homo sapiens, 72 h; for inhibition at 3.3 µM: Compound concentration: 3.3 μM; for inhibition at 10 µM: Compound concentration: 10 μM; for inhibition at 30 µM: Compound concentration: 30 μM. The method in brief: as §1
The test system of assay [4] is B16F10 (malignant melanoma). The experiment in a line: Antiproliferative activity (CCK-8 cell viability), B16F10. As to conditions: Mus musculus, 72 h, read-out: Antiproliferative activity in cancerous cells, B16F10 (inhibition of cell growth); for inhibition at 3.3 µM: B16-F10, Compound concentration: 3.3 μM; for inhibition at 10 µM: B16-F10, Compound concentration: 10 μM. The method in brief: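 B16F10 melanoma cells grown in DMEM with 10% FBS were plated in 96-well plates at 2,000-5,000 cells/well. After attachment they were exposed to compound in medium for 72 h at 37° C. CCK-8 solution (10 μL) was then added, and after 4 h at 37° C absorbance was read at 450 nm.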

For the next assay, the system named is SW480 (colon cancer). In words: Antiproliferative activity (CCK-8 cell viability), SW480. As to conditions: Homo sapiens, 72 h; for inhibition at 3.3 µM: Compound concentration: 3.3 μM; for inhibition at 10 µM: Compound concentration: 10 μM; for inhibition at 30 µM: Compound concentration: 30 μM. An outline of the steps: as §1
The mark [5] stands for this setting: read-out: Antiproliferative activity in cancerous cells, MDA-MB-231 (inhibition of cell growth).
Setting [6] is: read-out: Antiproliferative activity in cancerous cells, MDA-MB-231.
Setting [7] is: read-out: Antiproliferative activity in cancerous cells, A549 (inhibition of cell growth).
[8] abbreviates: read-out: Antiproliferative activity in cancerous cells, A549.
Where [9] appears, read: read-out: Antiproliferative activity in cancerous cells, SW480 (inhibition of cell growth).

Read-outs that look alike come from different tables or passages of the source.

Regarding `CC1=C(CC(=O)O)c2cc(Cl)ccc2/C1=C\c1ccc(Oc2ccc(F)cc2)cc1` [C63, (Z)-2-(5-Chloro-1-(4-(4-fluorophenoxy)benzylidene)-2-methyl-1H-inden-3-yl)acetic acid], the inhibition at 3.3 µM was 30 to 50% in the assay on HepG2 (liver cancer); less than 30% in assay [1] (setting [5]); 30 to 50% in the assay with HeLa (cervical cancer); no less than 50% in assay [2]; 30 to 50% in assay [3] (setting [7]); 30 to 50% in assay [4]. Further, the inhibition at 3.3 µM in the assay with SW480 (colon cancer) (setting [9]) is less than 30%. The inhibition at 10 µM was no less than 50% in the assay with HepG2 (liver cancer); less than 30% in assay [1] (setting [5]); no less than 50% with HeLa (cervical cancer); no less than 50% in assay [2]; 30 to 50% in assay [3] (setting [7]); 30 to 50% in assay [4]. The inhibition at 10 µM with SW480 (colon cancer) (setting [9]) is less than 30%. Also, the inhibition at 30 µM in assay [1] (setting [6]) was 30 to 50%; in assay [3] (setting [8]), 30 to 50%; with SW480 (colon cancer) (read-out: Antiproliferative activity in cancerous cells, SW480), less than 30%.
`CC1=C(CC(=O)O)c2cc(F)ccc2/C1=C\c1ccc(Sc2ccc(F)cc2)cc1` [C47, (Z)-2-(5-Fluoro-1-(4-((4-fluorophenyl)thio)benzylidene)-2-methyl-1H-inden-3-yl)acetic acid]: the inhibition at 3.3 µM was less than 30% in the assay on HepG2 (liver cancer); less than 30% in assay [1] (setting [5]); less than 30% in the assay with HeLa (cervical cancer); 30 to 50% in assay [2]; less than 30% in assay [3] (setting [7]); less than 30% in assay [4]. Further, in the assay on SW480 (colon cancer) (setting [9]), the inhibition at 3.3 µM was less than 30%. Moreover, the inhibition at 10 µM with HepG2 (liver cancer) is no less than 50%; in assay [1] (setting [5]), less than 30%; in the assay with HeLa (cervical cancer) it was no less than 50%; in assay [2], no less than 50%; in assay [3] (setting [7]) it was no less than 50%; in assay [4], no less than 50%. Further, the inhibition at 10 µM in the assay on SW480 (colon cancer) (setting [9]) is no less than 50%. Besides, in assay [1] (setting [6]), the inhibition at 30 µM is less than 30%.
Take `CC1=C(CC(=O)O)c2cc(C)ccc2/C1=C\c1ccc(COc2ccc(C(F)(F)F)cc2)cc1` [B59, (Z)-2-(2,5-Dimethyl-1-(4-((4-(trifluoromethyl)phenoxy)methyl)benzylidene)-1H-inden-3-yl)acetic acid]: the inhibition at 3.3 µM in the assay on HepG2 (liver cancer) is less than 30%; in assay [1] (setting [5]) it was less than 30%; in the assay with HeLa (cervical cancer), 30 to 50%; in assay [2], no less than 50%; in assay [3] (setting [7]), less than 30%; in assay [4] it was 30 to 50%. Besides, in the assay on SW480 (colon cancer) (setting [9]), the inhibition at 3.3 µM was less than 30%. The inhibition at 10 µM with HepG2 (liver cancer) is less than 30%; in assay [1] (setting [5]), less than 30%; in the assay with HeLa (cervical cancer) it was 30 to 50%; in assay [2] it was no less than 50%; in assay [3] (setting [7]), 30 to 50%; in assay [4], no less than 50%. Further, the inhibition at 10 µM in the assay on SW480 (colon cancer) (setting [9]) fell in the range of 30 to 50%. In addition, the inhibition at 30 µM is less than 30% in assay [1] (setting [6]) and 30 to 50% in assay [3] (setting [8]).
For the compound `CC1=C(CC(=O)O)c2cc(F)ccc2/C1=C\c1ccc(OCCc2ccccc2)cc1` [B30, (Z)-2-(5-Fluoro-2-methyl-1-(4-phenethoxybenzylidene)-1H-inden-3-yl)acetic acid], the inhibition at 3.3 µM in the assay on HepG2 (liver cancer) is less than 30%; in assay [1] (setting [5]), less than 30%; with HeLa (cervical cancer), less than 30%; in assay [2] it was no less than 50%; in assay [3] (setting [7]) it was 30 to 50%; in assay [4] it was less than 30%. Besides, the inhibition at 3.3 µM with SW480 (colon cancer) (setting [9]) was less than 30%. In addition, the inhibition at 10 µM is no less than 50% in the assay on HepG2 (liver cancer); no less than 50% in assay [1] (setting [5]); no less than 50% in the assay on HeLa (cervical cancer); no less than 50% in assay [2]; no less than 50% in assay [3] (setting [7]); less than 30% in assay [4]. The inhibition at 10 µM with SW480 (colon cancer) (setting [9]) was no less than 50%.
In the case of `CC1=C(CC(=O)O)c2cc(F)ccc2/C1=C\c1ccc(COCc2ccc(F)cc2)cc1` [B101, (Z)-2-(5-Fluoro-1-(4-(((4-fluorobenzyl)oxy)methyl)benzylidene)-2-methyl-1H-inden-3-yl)acetic acid], the inhibition at 3.3 µM is 30 to 50% in the assay on HepG2 (liver cancer); no less than 50% in assay [1] (setting [5]); less than 30% in the assay on HeLa (cervical cancer); less than 30% in assay [2]; 30 to 50% in assay [3] (setting [7]); less than 30% in assay [4]. Besides, in the assay on SW480 (colon cancer) (setting [9]), the inhibition at 3.3 µM is less than 30%. For the same compound, the inhibition at 10 µM in the assay with HepG2 (liver cancer) is no less than 50%; in assay [1] (setting [5]) it was no less than 50%; in the assay with HeLa (cervical cancer), no less than 50%; in assay [2], 30 to 50%; in assay [3] (setting [7]), no less than 50%; in assay [4], no less than 50%. Moreover, the inhibition at 10 µM in the assay on SW480 (colon cancer) (setting [9]) was no less than 50%.
Consider `CC1=C(CC(=O)O)c2cc(F)ccc2/C1=C\c1ccc(CCOc2ccccc2)cc1` [B32, (Z)-2-(5-Fluoro-2-methyl-1-(4-(2-phenoxyethyl)benzylidene)-1H-inden-3-yl)acetic acid], for which the inhibition at 3.3 µM in the assay with HepG2 (liver cancer) was less than 30%; in assay [1] (setting [5]), less than 30%; with HeLa (cervical cancer), less than 30%; in assay [2], 30 to 50%; in assay [3] (setting [7]), 30 to 50%; in assay [4], 30 to 50%. Moreover, the inhibition at 3.3 µM in the assay on SW480 (colon cancer) (setting [9]) was 30 to 50%. Further, the inhibition at 10 µM in the assay on HepG2 (liver cancer) is no less than 50%; in assay [1] (setting [5]), less than 30%; in the assay on HeLa (cervical cancer), no less than 50%; in assay [2] it was no less than 50%; in assay [3] (setting [7]) it was no less than 50%; in assay [4], no less than 50%. In addition, the inhibition at 10 µM in the assay on SW480 (colon cancer) (setting [9]) was in the range of 30 to 50%.
Turning to `CC1=C(CC(=O)O)c2cc(F)ccc2/C1=C\c1ccc(Cc2cc3ccccc3o2)cc1` [C311, (Z)-2-(1-(4-(Benzofuran-2-ylmethyl)benzylidene)-5-fluoro-2-methyl-1H-inden-3-yl)acetic acid], the inhibition at 3.3 µM in the assay on HepG2 (liver cancer) is no less than 50%; in assay [1] (setting [5]) it was less than 30%; in the assay on HeLa (cervical cancer) it was less than 30%; in assay [2] it was 30 to 50%; in assay [3] (setting [7]) it was less than 30%; in assay [4], no less than 50%. For the same compound, the inhibition at 3.3 µM in the assay on SW480 (colon cancer) (setting [9]) is less than 30%. For the same compound, the inhibition at 10 µM in the assay with HepG2 (liver cancer) is no less than 50%; in assay [1] (setting [5]), no less than 50%; in the assay with HeLa (cervical cancer), less than 30%; in assay [2], 30 to 50%; in assay [3] (setting [7]) it was less than 30%; in assay [4] it was no less than 50%. Further, the inhibition at 10 µM with SW480 (colon cancer) (setting [9]) was less than 30%. For the same compound, the inhibition at 30 µM in the assay with HepG2 (liver cancer) (Compound concentration: 30 μM) was no less than 50%; in assay [1] (setting [5]) it was no less than 50%; in the assay with HeLa (cervical cancer) (Compound concentration: 30 μM) it was 30 to 50%; in assay [2] (A-431, Compound concentration: 30 μM), 30 to 50%; in assay [3] (setting [7]), less than 30%; in assay [4] (B16-F10, Compound concentration: 30 μM), no less than 50%. The inhibition at 30 µM in the assay on SW480 (colon cancer) (setting [9]) is less than 30%.
